Usually MIC50 stands for an inhibitory concentration at the 50% level, which refers to growth in some studies and to a panel of isolates in others. Low values mean greater potency, high ones weaker potency. A word on the MIC90: it is the lowest concentration that inhibits either 90% of growth or 90% of the strains tested, depending on the study. Read a low MIC90 as higher susceptibility.

Experimental findings from PMC7143510, “In Vitro Efficiency of Antimicrobial Peptides against Staphylococcal Pathogens Associated with Canine Pyoderma” (Animals : an Open Access Journal from MDPI, 2020) are described below.

Where no end group is shown, it is not given here.

The subject of assay [1] is canine S. aureus strains. Nature of the assay: MBC, subculture from MIC assay. It is filed as cell-based, Staphylococcus aureus. The following applies: 48 h. On the procedure:
(§1) The loopful (10 µl) of the tested sample was transferred to Triptic Soy Broth (TSB, BD Difco) and incubated at 37 °C for 48 h. MBC was taken as the lowest concentration of each peptide at which staphylococcal colonies were no longer viable on the subculture.

Assay [2] deals with canine S. pseudintermedius strains. Nature of the assay: MBC, subculture from MIC assay. It counts as cell-based, Staphylococcus pseudintermedius. The note with it: 48 h. On the procedure:
as §1

The test system of assay [3] is canine S. aureus strains. Nature of the assay: MIC, broth microdilution (CLSI). It is filed as cell-based, Staphylococcus aureus. On the procedure:
(§2) Sixty-six well-characterized staphylococcal strains (60 S. pseudintermedius and 6 S. aureus strains) were selected from the archived previously described collection. This study was conducted based on a retrospective analysis of staphylococcal canine strains isolated and archived at the Laboratory of Department of Medical Microbiology of MUG during routine clinical laboratory procedures. All samples were routinely collected by a veterinarian during the course of infection treatment or control visits, not specifically for this research. The animals were swabbed only after the owner’s consent was given, as we stated in the previous published study.
(§3) Staphylococcal strains were classified as multidrug-resistant (MDR) when they were not susceptible to at least one agent in three different classes of antimicrobials. Sixty examined S. pseudintermedius strains included thirty multidrug-resistant strains (MDRSP) and seven methicillin-resistant strains (MRSP). Six canine S. aureus strains, including three multidrug-resistant strains (MDRSA). S. pseudintermedius strains, including MDRSP (n = 30) and MRSP (7) strains, were resistant to: amoxicillin (61.6%), clindamycin (48.3%), erythromycin (45%), gentamicin (33.3%), chloramphenicol (26.6%), sulfamethoxazole/trimethoprim (25%), tetracycline (20%), cefadroxil (11.6%), oxacillin (11.6%) and ciprofloxacin (10%). Six S. aureus strains, including MDRSA (n = 3), were resistant to: amoxicillin (3/6), erythromycin (3/6), gentamicin (3/6), clindamycin (2/6), chloramphenicol (1/6), sulfamethoxazole/trimethoprim (1/6) and doxycycline (1/6). The following reference strains were used: S. aureus ATCC 6538 (MSSA), S. aureus ATCC 43300 (MRSA), S. intermedius PCM 2405. Both the reference- and clinical strains were stored at −80 °C in Tryptic Soy Broth (TSB, Becton–Dickinson, USA) supplemented with 15% glycerol.
(§4) The antimicrobial susceptibility of each strain to the tested peptides was determined using the minimal inhibitory concentrations (MIC) microdilution method as recommended by the Clinical Laboratory Standards Institute (CLSI) guidelines. Briefly, the staphylococcal strains were grown overnight on a Columbia blood agar (Graso Biotech, Poland) at 37 °C. Isolated colonies were suspended in saline solution and adjusted to a 0.5 McFarland standard. The bacterial suspension was diluted ~ 1:100 to a final concentration of 1 × 10^6 colony forming units (cfu/mL). Two-fold serial dilutions of each tested peptide in Mueller–Hinton Broth 2 (Sigma–Aldrich) were added (100 µL) to polypropylene 96-well plates containing bacterial inoculum (100 µL) and were incubated at 37 °C for 18 h. All clinical and reference strains were tested in duplicate. Bacterial growth was assessed visually after incubation and MIC was recorded as the lowest drug concentration at which an observable growth was inhibited. The MIC50 and MIC90 values were defined as the lowest concentrations of peptides at which 50% and 90% of the strains were inhibited, respectively.
A general note: In broth dilution the organism is exposed to a series of concentrations in liquid medium.

Assay [4] has as its system canine S. pseudintermedius strains. Briefly: MIC, broth microdilution (CLSI). It counts as cell-based, Staphylococcus pseudintermedius. On the procedure: as §2, §3, §4
Where [5] appears, read: canine S. aureus (II), 6 strains, 10 µl subcultured in TSB, 37 °C.
Setting [6] is: canine S. pseudintermedius (I), 60 strains, 10 µl subcultured in TSB, 37 °C.
Setting [7] is: canine S. aureus (II), 6 strains, Mueller–Hinton Broth 2, 1 × 10^6 cfu/mL, 37 °C, 18 h, visual, duplicate.
Setting [8] is: canine S. aureus (II), 6 strains, lowest concentration inhibiting 50% of strains.
Setting [9] is: canine S. aureus (II), 6 strains, lowest concentration inhibiting 90% of strains.
Where [10] appears, read: canine S. pseudintermedius (I), 60 strains, Mueller–Hinton Broth 2, 1 × 10^6 cfu/mL, 37 °C, 18 h, visual, duplicate.
The mark [11] stands for this setting: canine S. pseudintermedius (I), 60 strains, lowest concentration inhibiting 50% of strains.
Where [12] appears, read: canine S. pseudintermedius (I), 60 strains, lowest concentration inhibiting 90% of strains.

Regarding FLPLIGRVLSGIL-NH2 [Temporin A], the “MBC Median (IQR)” value with canine S. aureus strains [1] (canine strains) is on record as 8 (8–14) µg/mL. For the same substance, the “MBC Median (IQR)” value in assay [2] was 8 (8–8) µg/mL. Also, in the assay on canine S. aureus strains [3] (canine strains, 18 h), the MIC50 stood at 8 µg/mL, the MIC90 was determined as 8 µg/mL and the “MIC Median (IQR)” value is 8 (8–8) µg/mL. Also, in assay [4] (18 h), the MIC50 came to 8 µg/mL, the MIC90 is reported as 8 µg/mL and the “MIC Median (IQR)” value is given as 8 (4–8) µg/mL.

With GIGKFLKKAKKFGKAFVKILKK-NH2 [Pexiganan], the “MBC Median (IQR)” value in the assay on canine S. aureus strains [1] (canine strains) is 8 (8–8) µg/mL. Besides, the “MBC Median (IQR)” value in assay [2] was 4 (2–4) µg/mL. Further, in the assay on canine S. aureus strains [3] (canine strains, 18 h), the MIC50 was 4 µg/mL, the MIC90 is 8 µg/mL and the “MIC Median (IQR)” value is given as 6 (4–8) µg/mL. Also, in assay [4] (18 h), the MIC50 was determined as 4 µg/mL, the MIC90 was 4 µg/mL and the “MIC Median (IQR)” value was 4 (2–4) µg/mL.

For the substance GLFDIIKKIAESF-NH2 [Aurein 1.2], the “MBC Median (IQR)” value with canine S. aureus strains [1] (setting [5]) is listed as 128 (128–224) µg/mL; in assay [2] (setting [6]), 64 (64–64) µg/mL. In addition, the “MIC Median (IQR)” value with canine S. aureus strains [3] (setting [7]) is 128 (128–128) µg/mL; in assay [4] (setting [10]), 32 (32–32) µg/mL. In addition, the MIC50 against canine S. aureus strains [3] (setting [8]) was 128 µg/mL; in assay [4] (setting [11]), 32 µg/mL. In addition, the MIC90 against canine S. aureus strains [3] (setting [9]) turned out to be 256 µg/mL; in assay [4] (setting [12]), 32 µg/mL.

Take GLFDVIKKVASVIGGL-NH2 [Citropin 1.1]: the “MBC Median (IQR)” value in the assay with canine S. aureus strains [1] (canine strains) is 12 (8–16) µg/mL. The “MBC Median (IQR)” value in assay [2] is on record as 4 (4–4) µg/mL. Moreover, in the assay on canine S. aureus strains [3] (canine strains, 18 h), the MIC50 stood at 8 µg/mL, the MIC90 is reported as 16 µg/mL and the “MIC Median (IQR)” value is 8 (8–14) µg/mL. In addition, in assay [4] (18 h), the MIC50 came to 4 µg/mL, the MIC90 is on record as 4 µg/mL and the “MIC Median (IQR)” value is 4 (4–4) µg/mL.

For GVIDAAKKVVNVLKNLF-NH2 [Uperin 3.6], the “MBC Median (IQR)” value with canine S. aureus strains [1] (canine strains) is 16 (16–16) µg/mL; in assay [2], 2 (2–4) µg/mL. Besides, the MIC50 is reported as 8 µg/mL in the assay with canine S. aureus strains [3] (canine strains, 18 h) and 2 µg/mL in assay [4] (18 h). Moreover, the MIC90 with canine S. aureus strains [3] (canine strains, 18 h) turned out to be 16 µg/mL; in assay [4] (18 h), 2 µg/mL. Besides, the “MIC Median (IQR)” value is given as 8 (8–14) µg/mL against canine S. aureus strains [3] (canine strains, 18 h) and 2 (2–2) µg/mL in assay [4] (18 h).

As for KWKLFKKIGAVLKVL-NH2 [CAMEL], the “MBC Median (IQR)” value in the assay on canine S. aureus strains [1] (setting [5]) is 4 (4–4) µg/mL; in assay [2] (setting [6]), 4 (2–4) µg/mL. For the same substance, the “MIC Median (IQR)” value is given as 4 (4–4) µg/mL against canine S. aureus strains [3] (setting [7]) and 2 (2–4) µg/mL in assay [4] (setting [10]). In addition, the MIC50 amounted to 4 µg/mL with canine S. aureus strains [3] (setting [8]) and 2 µg/mL in assay [4] (setting [11]). Besides, the MIC90 (in the assay with canine S. aureus strains [3] (setting [9]); in assay [4] (setting [12])) was 4 µg/mL each time.
